Test results: paper PMC6098011, “Insights into degradation mechanism of N-end rule substrates by p62/SQSTM1 autophagy adapter” (Nature Communications, 2018)
“Also recorded” adds a separate entry of the source.

What was measured:
[1] = target: T1, MBP-PB1-ZZ WT (p62 residues 1–181) (Homo sapiens, UniProt Q13501); experiment: FP binding assay, MBP-PB1-ZZ WT
T1 construct: The PB1-ZZ-domain of p62 (residues 1–181) WT and various mutants were expressed as MBP-fused forms; made in house; host or cells: Escherichia coli BL21(DE3)
T1 sequence (Q13501 1-181): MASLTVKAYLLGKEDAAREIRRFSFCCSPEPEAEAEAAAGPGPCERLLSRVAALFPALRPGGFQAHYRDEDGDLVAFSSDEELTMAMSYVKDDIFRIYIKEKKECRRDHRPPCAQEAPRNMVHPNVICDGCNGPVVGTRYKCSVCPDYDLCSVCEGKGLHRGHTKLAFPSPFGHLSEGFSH
Experimental: The PB1-ZZ-domain of p62 (residues 1–181) WT and various mutants were expressed as MBP-fused forms. […] The ZZ-domain (residues 122–181) WT and various mutants were expressed as GST-fused forms.
FITC-labeled R-BiP/GRP78 peptide and all mutant peptides were dissolved to 1 mM concentration in buffers (50 mM MES pH 6.0 [or 50 mM Tris pH 8.0], 100 mM NaCl, and 1 mM DTT) and sequentially diluted with binding buffer up to 100 nM in each 40 μL reaction well. Purified GST-ZZ, MBP-PB1-ZZ WT and the respective mutants were also serially diluted in binding buffer and mixed into each reaction well at a concentration ranging from 400 nM to 3 mM. […] A nonlinear graph of p62 construct concentration-dependent polarization was calculated and drawn using GraphPad Prism 7 software.

[2] = test system: degradation of R-BiP protein and p62 in HeLa cells; experiment: Cycloheximide-chase protein degradation assay; type: cell-based; conditions: HA-p62 and Ub-R-BiP transfected, chloroquine 30 μM, 16 hr, 50 μg/ml cycloheximide 16 hr, immunoblotting
Experimental: HeLa cells were cultured in DMEM (HyClone) containing 10% FBS (HyClone) and 1% penicillin/streptomycin (HyClone). Cells were transiently transfected with plasmids using Lipofectamine 2000 (Invitrogen) for mammalian expression. For protein degradation analysis, HeLa cells at 80% confluence were transiently transfected with plasmids expressing HA-p62 (either WT or mutants) and Ub-R-BiP. For the blocking of protein synthesis, cells were treated with 50 μg/ml cycloheximide (Sigma-Aldrich) for […] prior to cell harvesting. Cultured cells were pelleted by centrifugation and pellets were resuspended in phosphate-buffered saline (PBS). A volume of 150 μl was then mixed with 150 μl of 5X SDS-PAGE loading buffer (125 mM Tris-HCl pH 6.8, 4% SDS, 10% 2-mercaptoethanol and 20% glycerol). Each sample was heated for 5 min and 0.1 mg of total protein was subjected to Western blotting. Following antibodies were used in this study: rabbit monoclonal anti-p62 (Cell Signaling Technology, 8025, 1:1000), rabbit polyclonal anti-R-BiP (Abfrontier, AR02-PA0001, 1:1000), mouse monoclonal anti-β-actin (Sigma-Aldrich, A5441, 1:20,000), rat monoclonal anti-HA (Roche, 1867431, 1:20,000), mouse monoclonal anti-His-HRP (Santa Cruz, sc-8036 HRP, 1:20,000) and mouse monoclonal anti-MBP-HRP (NEB, E8038S, 1:2000).
Supplementary Figure 7. Degradation assay of R-BiP and p62 protein […]

Compound | Binding (dissociation constant) ([1]; pH 4.5) | Binding (dissociation constant) ([1]; pH 5.0) | Binding (dissociation constant) ([1]; pH 8.5) | Binding (dissociation constant) ([1]; pH 9.0) | Degradation of R-BiP protein and p62 [2]
N=C(N)NCCC[C@H](N)C(=O)N[C@@H](CCC(=O)O)C(=O)N[C@@H](CCC(=O)O)C(=O)N[C@@H](CCC(=O)O)C(=O)N[C@@H](CC(=O)O)C(=O)N[C@@H](CCCCNC(=S)Nc1ccc2c(c1)C(=O)OC21c2ccc(O)cc2Oc2cc(O)ccc21)C(=O)O [R-BiP peptide] | not detected | not detected | not detected | not detected | –
CCN(CC)CCCC(C)Nc1ccnc2cc(Cl)ccc12 (centres unmarked) [chloroquine] | – | – | – | – | blocked; also recorded: not degraded
